Data as given in US20210093521A1, “ANTIBACTERIAL ACTIVITY BY MG COMPLEX IN DEODORANT EMULSION FOR AEROSOLS, DEODORANT INCLUDING THE SAME AND USE OF THE DEODORANT” (Henkel AG & Co. KGaA, priority 2019, published 2021).

Columns and labels:
[1] = test system: bacterial germs known to cause body odor; test: inhibition yard test, both germs tested; type: cell-based, Staphylococcus epidermidis, Staphylococcus hominis; details: agent within the deodorant emulsion
Excerpt: The inhibition yard test (or agar diffusion test) is used to investigate the growth-inhibiting effect of substances or mixtures of substances on the most important bacterial germs known to cause body odor. For this purpose, the pathogen-containing material is spread out on a culture medium (usually on an agar layer within a Petri dish). Filter paper discs impregnated with the mixture of active substances to be tested or with a control without an active substance are placed on the bacterial layer so that the active substances can penetrate the material and spread there. If the test substance has an antimicrobial effect, clearly visible circles, so-called inhibition yards, form around the filter paper discs due to the inhibition of the pathogen growth. These can be measured in mm diameter.
An inhibition yard test was performed with deodorant emulsions containing the following potential or actual bacterial growth inhibiting additives (the amounts are given in weight %)

[2] = test system: four bacteria that cause body odor; test: membrane test, statements in text for all tested species; type: cell-based, Staphylococcus, Corynebacterium and Anaerococcus species; details: 14 h, agent or formulation in deodorant emulsion

## CCCCCCC(CCCC)C(=O)O (stereo not drawn) [Isocarb, 2-butyloctanioc acid]
[1]
  antibacterial effect in the deodorant emulsion (inhibition zone): no effect

## Benzalkonium chloride
[2]
  antibacterial effectiveness in the membrane test: good effect
[1]
  antibacterial effect in the deodorant emulsion (inhibition zone): good effect even in small quantities
